Source: publication PMC11494503, “Next Generation SICLOPPS Screening for the Identification of Inhibitors of the HIF-1α/HIF-1β Protein–Protein Interaction” (ACS Chemical Biology, 2024)
Read-outs that look alike come from different tables or passages of the source. Peptide text beside a SMILES is read from it.

Experiments:
[1] = target: T1, PAS-B domain of HIF-1α (Homo sapiens, UniProt Q16665); experiment: Microscale thermophoresis (MST) binding to HIF-1α PAS-B domain
T1 construct: The HIF-1a PAS-B domain was expressed and purified as previously described; made in house
T1 sequence (Q16665 228-298 limits assumed): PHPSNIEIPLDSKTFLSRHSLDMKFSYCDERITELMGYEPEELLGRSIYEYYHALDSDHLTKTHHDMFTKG
Protocol: We synthesized the top 20 cyclic peptides from the ranking approach. We also synthesized cyclo-CLLFVY as a control.[14] These compounds were assessed for binding to the PAS-B domain of HIF-1α by microscale thermophoresis (MST). […]

[2] = test system: HIF-1α/HIF-1β PPI; experiment: SICLOPPS CX5 library screen in HIF-1 RTHS with biopanning and NGS; type: cell-based, E. coli; conditions: after 2 rounds of biopanning
From the text: The HIF-1 RTHS links the PPI between HIF-1α-P22 and HIF-1β-434 fusion proteins to the life/death of the host E. coli via three reporter genes.[14] Interaction of HIF-1α and HIF-1β results in the formation of a chimeric P22/434 repressor that inhibits the transcription of the KanR and His3 reporter genes, which are required for cell survival in selection media (Figure S1). Disruption of the HIF-1α/HIF-1β PPI also disrupts the repressor complex, leading to transcription of the reporter genes and survival of colonies that contain cyclic peptide HIF-1 inhibitors. Thus, cells containing cyclic peptide inhibitors of the targeted PPI will survive and grow on selective media, whereas all others will not. The HIF-1 RTHS cells were transformed with the sequenced CX5 library and, after recovery, plated onto a selective medium. After incubation for 48 h at 37 °C, selection plates were scraped to collect all colonies, and the SICLOPPS plasmids were isolated. The extein coding region of these plasmids was subsequently sequenced by NGS. We observed sequence enrichment after one round of biopanning, with the three sequences (CAAAAA, CRLYVL, and CVTYVL) making up 7.8% of the entire library with over 10 000 copies each per 1 M reads (Figure 2a). The prevalence of the control sequence was reduced by 44% from 80 000 to 45 000 copies per million reads, which further indicated enrichment of cyclic peptide inhibitors of the HIF-1α/HIF-1β PPI in the RTHS. The next 47 sequences were present with over 1000 copies after round 1 which made up a further 15% of the library (Figure 2a). HIF-1 RTHS cells were transformed with the SICLOPPS plasmid library isolated from round 1 of biopanning, for a second round of selection. After incubation, all colonies were scraped, and plasmids were isolated and sequenced by NGS as before. We observed further sequence enrichment after the second round of biopanning, evident by the shift of the library population from the mostly low-prevalence sequences in both the naïve library and after one round of biopanning to mostly highly prevalent cyclic peptide sequences after round 2 of biopanning (Figure 2b). With 159 000 copies per 1 M reads, the most prevalent sequence is CRTYIL, while the next 14 sequences were all present with more than 10 000 copies per 1 M. The top 15 sequences make up over 50% of the entire library. The CA5 internal standard dropped to 0.5%, providing further evidence of enrichment of active inhibitors during biopanning.
All reagents were purchased from Fisher Scientific or Sigma Aldrich UK unless specified otherwise.
Restriction enzymes and microbiology reagents were purchased from New England Biolabs Inc., FisherScientific (UK) or Promega (UK) and were used as directed by the manufacturer. Primers and oligonucleotides were synthesised by Integrated DNA Technologies (UK). DNA sequencing was carried out by Eurofins MWG Operon (Germany).
Construction of the RTHS and SICLOPPS library was conducted as previously described.2 […]
Electrocompetent RTHS-HIF 1 cells2 were transformed with 100 ng freshly prepared SICLOPPS CX5 library, prepared as previously detailed.3 The recovery mixture was plated on 6 square plates containing M9 minimal media supplemented with 50 µg/mL ampicillin, 25 µg/mL Spectinomycin, 50 µg/mL kanamycin, 35 µg/mL chloramphenicol, 100 µM IPTG, 6.5 µM L-arabinose and 7.5 mM 3-amino triazole and incubate at 37 °C for 48 h. To ensure sufficie transformation efficiency, 10 µL transformation mixture was subjected to 10-fold serial dilutions plated on LB-agar with 35 µg/m […]
Chloramphenicol. […] All cells were […]
then harvested by resuspending the colonies in a total of 50 mL LB medium and transferring to a centrifuge tube and centrifugation for 30 min at 4000 rpm and 4°C. The cell pellet was then subjected to maxi prep (GeneJET Plasmid Maxiprep kit Thermo Scientific) and the resulting plasmid library was used for the next round of biopanning and NGS. The second round of bio panning was […]

[3] = test system: HIF-1; experiment: HIF-1-dependent luciferase reporter assay in U2OS-HRE-Luc cells in hypoxia; type: cell-based, human; conditions: 40 μM, 16 h in hypoxia
Protocol: HIF Luciferase Reporter Assays
Assays were conducted in previously reported U2OS-HRE-Luciferase (U2OS-HRE-Luc) cells.2 Upon reaching 80-90% confluency, U2OS-HRE-Luc were plated (10 000 cells/well) in 96-well plates (Perkin-Elmer) and incubated in a cell incubator for 16 h. The cells were treated with cyclic peptide at […]
manufacturer’s protocol. […] The

[4] = MST, HIF-1α PAS-B, mean (n = 3) ± SEM, read-out: KD

| Molecule | Kd [1, 4] | Enrichment after pan 2 [%] [2] | Kd [1] | fold better KD than the control peptide cyclo-CLLFVY in the same assay ([1]; MST, HIF-1α) | reduction in luminescence [3] |
| --- | --- | --- | --- | --- | --- |
| CC[C@H](C)[C@@H]1NC(=O)[C@H](Cc2ccc(O)cc2)NC(=O)[C@H](CC(C)C)NC(=O)[C@H](CCCNC(=N)N)NC(=O)[C@H](CS)NC(=O)[C@H](C(C)C)NC1=O [CRLYIV, cyclo-CRLYIV] (cyclo(CRLYIV)) | 122 ± 4 µM | 2.142% |  |  |  |
| CC[C@H](C)[C@@H]1NC(=O)[C@H](Cc2ccc(O)cc2)NC(=O)[C@H](C(C)C)NC(=O)[C@H](CCCNC(=N)N)NC(=O)[C@H](CS)NC(=O)[C@H](CC(C)C)NC1=O [CRVYIL, cyclo-CRVYIL] (cyclo(CRVYIL)) | 31 ± 6 µM | 1.306% |  |  |  |
| CC[C@H](C)[C@@H]1NC(=O)[C@H](CC(C)C)NC(=O)[C@H](CC(C)C)NC(=O)[C@H](CCCNC(=N)N)NC(=O)[C@H](CS)NC(=O)[C@H](CC(C)C)NC1=O [CRLLIL, cyclo-CRLLIL] (cyclo(CRLLIL)) | 20 ± 1 µM | 1.196% |  |  |  |
| CC(C)C[C@@H]1NC(=O)[C@H](CS)NC(=O)[C@H](Cc2ccccc2)NC(=O)[C@H](CC(C)C)NC(=O)[C@H](CC(C)C)NC(=O)[C@H](CS)NC1=O [CLLFCL, cyclo-CLLFCL] (cyclo(CLCLLF)) |  | 1.071% | 0.47 ± 0.01 µM | > 80 fold |  |
| CC(C)C[C@@H]1NC(=O)[C@H](C(C)C)NC(=O)[C@H](CC(C)C)NC(=O)[C@H](C(C)C)NC(=O)[C@H](CCCNC(=N)N)NC(=O)[C@H](CS)NC1=O [CRVLVL, cyclo-CRVLVL] (cyclo(CRVLVL)) | 201 ± 16 µM | 0.8272% |  |  |  |
| CC[C@H](C)[C@@H]1NC(=O)[C@H](CCCNC(=N)N)NC(=O)[C@H](CCCNC(=N)N)NC(=O)[C@H](CS)NC(=O)[C@H](CC(C)C)NC(=O)[C@H]([C@@H](C)CC)NC1=O [CRRIIL, cyclo-CRRIIL] (cyclo(CRRIIL)) | 8 ± 1 µM | 0.9912% |  |  |  |
| CSCC[C@@H]1NC(=O)[C@H](CCCNC(=N)N)NC(=O)[C@H](CS)NC(=O)[C@H](CC(C)C)NC(=O)[C@H](C(C)C)NC(=O)[C@H](Cc2ccc(O)cc2)NC1=O [CRMYVL, cyclo-CRMYVL] (cyclo(CRMYVL)) | 58 ± 17 µM |  |  |  |  |
| Tat-cyclo-CLLFVY [reference compound] |  |  |  |  | 28% |
| CC(C)C[C@@H]1NC(=O)[C@H](CC(N)=O)NC(=O)[C@H](CC(C)C)NC(=O)[C@H](CC(C)C)NC(=O)[C@H](Cc2ccccc2)NC(=O)[C@H](CS)NC1=O [CFLLNL, cyclo-CFLLNL] (cyclo(CFLLNL)) | 103 ± 8 µM | 1.509% |  |  |  |
| CC[C@H](C)[C@@H]1NC(=O)[C@H](CC(C)C)NC(=O)[C@H]([C@@H](C)CC)NC(=O)[C@H](CCCNC(=N)N)NC(=O)[C@H](CS)NC(=O)[C@H](CC(C)C)NC1=O [CRILIL, cyclo-CRILIL] (cyclo(CRILIL)) | 20 ± 1 µM | 2.819% |  |  |  |
| CC(C)C[C@@H]1NC(=O)[C@H](CC(C)C)NC(=O)[C@H](Cc2ccccc2)NC(=O)[C@H](C(C)C)NC(=O)[C@H](CCCCN)NC(=O)[C@H](CS)NC1=O [CKVFLL, cyclo-CKVFLL] (cyclo(CKVFLL)) | 42 ± 12 µM | 3.064% |  |  |  |
| CC[C@H](C)[C@@H]1NC(=O)[C@H](CC(C)C)NC(=O)[C@H](CCCNC(=N)N)NC(=O)[C@H](CS)NC(=O)[C@H](C(C)C)NC(=O)[C@H]([C@@H](C)CC)NC1=O [CRLIIV, cyclo-CRLIIV] (cyclo(CRLIIV)) | 28 ± 2 µM | 1.138% |  |  |  |
| CC(C)C[C@@H]1NC(=O)[C@H](Cc2c[nH]c3ccccc23)NC(=O)[C@H](C(C)C)NC(=O)[C@H](CO)NC(=O)[C@H](CS)NC(=O)[C@H](Cc2ccc(O)cc2)NC1=O [CSVWLY, cyclo-CSVWLY] (cyclo(CSVWLY)) | 103 ± 28 µM | 2.022% |  |  |  |
| CC[C@H](C)[C@@H]1NC(=O)[C@H](CCCNC(=N)N)NC(=O)[C@H](CCSC)NC(=O)[C@H](C(C)C)NC(=O)[C@H](CS)NC(=O)[C@H](C)NC1=O [CVMRIA, cyclo-CVMRIA] (cyclo(ACVMRI)) | 168 ± 40 µM | 0.6968% |  |  |  |
| CC(C)C[C@@H]1NC(=O)[C@H](C(C)C)NC(=O)[C@H](Cc2ccc(O)cc2)NC(=O)[C@H](Cc2ccc(O)cc2)NC(=O)[C@H](CCCNC(=N)N)NC(=O)[C@H](CS)NC1=O [CRYYVL, cyclo-CRYYVL] (cyclo(CRYYVL)) | 59 ± 7 µM | 0.6784% |  |  |  |
| CC[C@H](C)[C@@H]1NC(=O)[C@H](CC(C)C)NC(=O)[C@H](Cc2ccc(O)cc2)NC(=O)[C@H](CCCNC(=N)N)NC(=O)[C@H](CS)NC(=O)[C@H](CC(C)C)NC1=O [CRYLIL, cyclo-CRYLIL] (cyclo(CRYLIL)) | 20 ± 2 µM | 0.6083% |  |  |  |
| CC[C@H](C)[C@@H]1NC(=O)[C@H](Cc2ccccc2)NC(=O)[C@H](CCSC)NC(=O)[C@H](CCCNC(=N)N)NC(=O)[C@H](CS)NC(=O)[C@H](CC(C)C)NC1=O [CRMFIL, cyclo-CRMFIL] (cyclo(CRMFIL)) | 20 ± 4 µM | 0.6746% |  |  |  |
| CC[C@H](C)[C@@H]1NC(=O)[C@H](Cc2ccc(O)cc2)NC(=O)[C@H]([C@@H](C)O)NC(=O)[C@H](CCCNC(=N)N)NC(=O)[C@H](CS)NC(=O)[C@H](CC(C)C)NC1=O [CRTYIL, cyclo-CRTYIL] (cyclo(CRTYIL)) | 24 ± 1 µM | 15.78% |  |  |  |
| CC(C)C[C@@H]1NC(=O)[C@H](CCCCN)NC(=O)[C@H](CS)NC(=O)[C@H](CC(C)C)NC(=O)[C@H](CC(C)C)NC(=O)[C@H](Cc2ccccc2)NC1=O [CKLFLL] (cyclo(CKLFLL)) |  | 0.6884% |  |  |  |
| cyclo-CVTYVL |  | 3.732% |  |  |  |
| CC(C)C[C@@H]1NC(=O)[C@H](CCCNC(=N)N)NC(=O)[C@H](CS)NC(=O)[C@H](CC(C)C)NC(=O)[C@H](C(C)C)NC(=O)[C@H](Cc2ccc(O)cc2)NC1=O [CRLYVL, cyclo-CRLYVL] (cyclo(CRLYVL)) | 150 ± 40 µM | 8.962% |  |  |  |
| CC(C)C[C@@H]1NC(=O)[C@H](C(C)C)NC(=O)[C@H](Cc2ccccc2)NC(=O)[C@H](CO)NC(=O)[C@H](CCCNC(=N)N)NC(=O)[C@H](CS)NC1=O [CRSFVL] (cyclo(CRSFVL)) |  | 0.6155% |  |  |  |
| CC[C@H](C)[C@@H]1NC(=O)[C@H](Cc2ccccc2)NC(=O)[C@H]([C@@H](C)CC)NC(=O)[C@H](CCCNC(=N)N)NC(=O)[C@H](CS)NC(=O)[C@H](CCSC)NC1=O [CRIFIM, cyclo-CRIFIM] (cyclo(CRIFIM)) | 26 ± 1 µM | 1.319% |  |  |  |
| CC[C@H](C)[C@@H]1NC(=O)[C@H]([C@@H](C)O)NC(=O)[C@H](CCCNC(=N)N)NC(=O)[C@H](CS)NC(=O)[C@H](CC(C)C)NC(=O)[C@H](C(C)C)NC1=O [CRTIVL, cyclo-CRTIVL] (cyclo(CRTIVL)) | > 250 µM | 3.427% |  |  |  |
| CC(C)C[C@@H]1NC(=O)[C@H](CC(C)C)NC(=O)[C@H](Cc2ccccc2)NC(=O)[C@H](C(C)C)NC(=O)[C@H](CCCNC(=N)N)NC(=O)[C@H](CS)NC1=O [CRVFLL] (cyclo(CRVFLL)) |  | 0.6625% |  |  |  |
